Literature values, collected in article PMC8780741, “Integration of In Silico, In Vitro and In Situ Tools for the Preformulation and Characterization of a Novel Cardio-Neuroprotective Compound during the Early Stages of Drug Development” (Pharmaceutics, 2022).

Design: method as in PMID 15832504
Conditions: reference compound for the permeability cut-off; cited from earlier work

Question: For `COCCc1ccc(OCC(O)CNC(C)C)cc1` (stereo not shown) [Metoprolol], which logP is on record?
Answer: Its logP is 1.72.
